Assay results as given in patent US8623859B2, “Bradykinin B1 antagonists” (Evotec AG, priority 2008, dated 2014).
Counter-ions that a name gives are not always drawn.

Biological target: T1, human B1 (Homo sapiens, UniProt P46663)
T1 construct: host or cells: CHO-K1
T1 sequence (P46663 1-353): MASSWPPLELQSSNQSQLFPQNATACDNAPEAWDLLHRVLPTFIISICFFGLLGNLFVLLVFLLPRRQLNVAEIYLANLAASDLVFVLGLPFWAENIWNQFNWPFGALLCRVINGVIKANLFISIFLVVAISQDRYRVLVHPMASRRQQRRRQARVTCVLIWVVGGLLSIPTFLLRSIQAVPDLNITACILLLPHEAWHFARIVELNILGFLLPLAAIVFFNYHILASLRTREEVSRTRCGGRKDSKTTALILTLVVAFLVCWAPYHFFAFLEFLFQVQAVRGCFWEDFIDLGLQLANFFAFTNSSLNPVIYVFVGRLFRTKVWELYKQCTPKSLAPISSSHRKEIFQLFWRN
Test: Calcium flux assay for Bradykinin B1 antagonist, CHO-K1 cell line expressing human B1
Type: cell-based
Settings: CHO-K1 cells expressing human B1, agonist Lys-(Des-Arg)-Bradykinin, read-out: Potency (IC50 value against human B1)
Procedure: Calcium Flux Assay for Bradykinin B1 Antagonist
The potency to inhibit the Bradykinin B1 receptors was determined for the compounds of this invention in a cell-based fluorescent calcium-mobilization assay. The assay measures the ability of test compounds to inhibit Bradykinin B1 receptor agonist-induced increase of intracellular free Ca^2+ in cell lines expressing B1.
The change of the intracellular Ca^2+ concentration is monitored with a specifically designed fluorescent plate reader (FlexStation, Molecular Devices).
CHO-K1 cell line expressing human B1 was purchased from Euroscreen (Gosselies, Belgium, with reference name hBl-D1). CHO-K1 cell lines expressing rat B1 or mouse B1 were established in the following way: the full-length receptor-coding cDNA clones were obtained by PCR performed on rat or mouse brain cDNAs. The respective cDNAs were cloned into an expression vector under the control of a CMV promotor. The resultant plasmids were introduced into CHO-K1 cells with liposome technology (FuGENE; Roche Diagnostics, Basel), according to the standard protocols described by the manufacturer. Cell lines expressing a Bradykinin receptor were selected in the culture medium containing 400 μg/ml G418 (Sigma). From selected cell populations, monoclonal cell lines were isolated by single cell cloning. The expression of Bradykinin receptors was confirmed by immunofluorescence staining of the cells, as well as by calcium flux assay.
Human B1-expressing cells were grown in Nutrient Mixture Ham's F12 (Sigma) containing 10% Foetal bovine serum (Sigma) and 400 μg/ml G418 (Sigma), 5 μg/ml puromycim (Sigma); Rat B1 and mouse B1-expressing cells were grown in DMEM/F12 medium (Sigma) containing 10% Foetal bovine serum (Sigma) and 400 μg/ml G418 (Sigma).
For the calcium flux assay, 80% confluent cells were detached from the culture vessels with Versene (Gibco; for human B1 cell-line) or with 1× trypsin-EDTA solution (Sigma; for rodent B1 cell-line), and seeded into 384-well plates (Cell binding Surface; Corning, N.Y.; #3683) at a density of 15,000 cells per well for human B1 or at a density of 20,000 cells per well for rodent B1. Cells were seeded in a volume of 50 μl in medium without antibiotics and incubated overnight in a humidified atmosphere with 5% CO2 at 37° C. The following day, the medium was replaced with 20 μl of 5 μM Fluo-4AM dye (Molecular Probes) in assay buffer (2.5 mM probenicid, 1 mg/ml pluronic acid, 0.1% BSA, 135 mM NaCl, 5 mM KCl, 1.8 mM CaCl, 1 mM MgCl2, 10 mM HEPES, 5.6 mM glucose, 0.05% gelatine, pH 7.4). The calcium indicator loaded cells were incubated at 37° C. for 2 hrs. Extracellular dye was then removed and each well was filled with 45 μl of assay buffer. Cell plates were kept in dark until used. Test compounds were assayed at 8 concentrations in triplicate. Serial 10-fold dilutions in 100% DMSO were made at a 100-times higher concentration than the final concentration, and then diluted 1:10 in assay buffer. 5 μl of each diluted compound was added to the well of cell plates (yielding final concentration with 1% DMSO), and incubated for 30 min at 25° C. before the addition of B1 agonist on the FlexStation.
The addition of agonist 20 μl per well to the assay plate was carried out on the FlexStation while continuously monitoring Ca^2+-dependent fluorescence at 538 nm. The integrated values, normalized with the background fluorescence, were plotted against the logarithm of the antagonist concentrations.

Row | IC50 | SMILES
1 | 10 to 100 nM | Cc1cccc(Cl)c1S(=O)(=O)N(Cc1nc(C(=O)N(C)CCc2ccc(C3=NCCN3)cc2)co1)C1CC1 [Ex 219, 2-({[(2-Chloro-6-methylphenyl)sulfonyl](cyclopropyl)amino}methyl)-N-{2-[4-(4,5-dihydro-1H-imidazol-2-yl)phenyl]ethyl}-N-methyl-1,3-oxazole-4-carboxamide trifluoroacetate]
2 | 10 to 100 nM | COc1cc(C)c(S(=O)(=O)N(C)Cc2cc(C(=O)NCCc3ccc(C4=N[C@@H]5CCCC[C@H]5N4)cc3)co2)c(C)c1 [Ex 36, N-(2-{4-[(3aR,7aR)-3a,4,5,6,7,7a-hexahydro-1H-benzimidazol-2-yl]phenyl}ethyl)-5-({[(4-methoxy-2,6-dimethylphenyl)sulfonyl](methyl)amino}methyl)furan-3-carboxamide]
3 | 100 to 1000 nM | COc1cc(C)c(S(=O)(=O)N(C)Cc2nnc(C(=O)N3CCN(C4CCN(C)CC4)CC3)o2)c(C)c1 [Ex 270, 4-Methoxy-N,2,6-trimethyl-N-[(5-{[4-(1-methylpiperidin-4-yl)piperazin-1-yl]carbonyl}-1,3,4-oxadiazol-2-yl)methyl]benzenesulfonamide trifluoroacetamide]
4 | < 10 nM | COc1cc(C)c(S(=O)(=O)N(C)Cc2nnc(C(=O)N(C)CCc3ccc(C4=NCCN4)cc3)s2)c(C)c1 [Ex 328, N-{2-[4-(4,5-Dihydro-1H-imidazol-2-yl)phenyl]ethyl}-5-({[(4-methoxy-2,6-dimethylphenyl)sulfonyl](methyl)amino}methyl)-N-methyl-1,3,4-thiadiazole-2-carboxamide]
5 | 100 to 1000 nM | COc1cc(C)c(S(=O)(=O)N(C)Cc2cc(C(=O)NCc3cc(CN4CCCC4)ccc3F)co2)c(C)c1 [Ex 151, N-[2-Fluoro-5-(pyrrolidin-1-ylmethyl)benzyl]-5-({[(4-methoxy-2,6-dimethylphenyl)sulfonyl](methyl)amino}methyl)furan-3-carboxamide trifluoroacetate]
6 | < 10 nM | COc1cc(C)c(S(=O)(=O)N(C)Cc2nnc(C(=O)N3CCN(Cc4ccc(N5CCCC5)nc4)CC3)o2)c(C)c1 [Ex 261, 4-Methoxy-N,2,6-trimethyl-N-{[5-({4-[(6-pyrrolidin-1-ylpyridin-3-yl)methyl]piperazin-1-yl}carbonyl)-1,3,4-oxadiazol-2-yl]methyl}benzenesulfonamide trifluoroacetate]
7 | 10 to 100 nM | COc1cc(C)c(S(=O)(=O)N(Cc2noc(C(=O)N3CCN(CC4CCCN(C)C4)CC3)n2)C2CC2)c(C)c1 (centres unmarked) [Ex 315, N-Cyclopropyl-4-methoxy-2,6-dimethyl-N-{[5-({4-[(1-methylpiperidin-3-yl)methyl]piperazin-1-yl}carbonyl)-1,2,4-oxadiazol-3-yl]methyl}benzenesulfonamide]
8 | 100 to 1000 nM | COc1cc(C)c(S(=O)(=O)N(C)Cc2cc(C(=O)NCc3ccc(CN4CCCCCC4)cc3)co2)c(C)c1 [Ex 101, N-[4-(Azepan-1-ylmethyl)benzyl]-5-({[(4-methoxy-2,6-dimethylphenyl)sulfonyl](methyl)amino}methyl)furan-3-carboxamide trifluoroacetate]
9 | < 10 nM | COc1cc(C)c(S(=O)(=O)N(Cc2nc(C(=O)NCc3ccc(CN4CCCC4)cc3)co2)C2CC2)c(C)c1 [Ex 76, 2-({Cyclopropyl[(4-methoxy-2,6-dimethylphenyl)sulfonyl]amino}methyl)-N-[4-(pyrrolidin-1-ylmethyl)benzyl]-1,3-oxazole-4-carboxamide]
10 | 100 to 1000 nM | COc1cc(C)c(S(=O)(=O)N(C)Cc2cc(C(=O)N3CCCC(c4ccc(CN5CCCC5)cc4)C3)co2)c(C)c1 (centres unmarked) [Ex 95, 4-Methoxy-N,2,6-trimethyl-N-{[4-({3-[4-(pyrrolidin-1-ylmethyl)phenyl]piperidin-1-yl}carbonyl)furan-2-yl]methyl}benzenesulfonamide trifluoroacetamide]
11 | < 10 nM | COc1cc(C)c(S(=O)(=O)N(Cc2nc(C(=O)N(C)Cc3cccc(CN4CCCC4)c3)co2)C2CC2)c(C)c1 [Ex 77, 2-({Cyclopropyl[(4-methoxy-2,6-dimethylphenyl)sulfonyl]amino}methyl)-N-methyl-N-[3-(pyrrolidin-1-ylmethyl)benzyl]-1,3-oxazole-4-carboxamide]
12 | 100 to 1000 nM | COc1cc(C)c(S(=O)(=O)N(Cc2cc(C(=O)N3CCN(C4CCN(C)CC4)CC3)co2)C2CC2)c(C)c1 [Ex 53, N-cyclopropyl-4-methoxy-2,6-dimethyl-N-[(4-{[4-(1-methylpiperidin-4-yl)piperazin-1-yl]carbonyl}furan-2-yl)methyl]benzenesulfonamide]
13 | 10 to 100 nM | COc1cc(C)c(S(=O)(=O)N(C)Cc2nnc(C(=O)N3CCN(CCCN4CCCC4)CC3)o2)c(C)c1 [Ex 259, 4-Methoxy-N,2,6-trimethyl-N-[(5-{[4-(3-pyrrolidin-1-ylpropyl)piperazin-1-yl]carbonyl}-1,3,4-oxadiazol-2-yl)methyl]benzenesulfonamide]
14 | 100 to 1000 nM | COc1cc(C)c(S(=O)(=O)N(C)Cc2cc(C(=O)NC3CC(C)(C)N(C)C(C)(C)C3)co2)c(C)c1 [Ex 3, 5-({[(4-methoxy-2,6-dimethylphenyl)sulfonyl](methyl)amino}methyl)-N-(1,2,2,6,6-pentamethylpiperidin-4-yl)furan-3-carboxamide]
15 | 100 to 1000 nM | COc1cc(C)c(S(=O)(=O)N(C)Cc2noc(C(=O)N3CCN(C4CCN(C)CC4)CC3)n2)c(C)c1 [Ex 302, 4-Methoxy-N,2,6-trimethyl-N-[(5-{[4-(1-methylpiperidin-4-yl)piperazin-1-yl]carbonyl}-1,2,4-oxadiazol-3-yl)methyl]benzenesulfonamide trifluoroacetate]
16 | 100 to 1000 nM | COc1cc(C)c(S(=O)(=O)N(C)Cc2noc(C(=O)N3CCN(CCCN4CCCC4)CC3)n2)c(C)c1 [Ex 304, 4-Methoxy-N,2,6-trimethyl-N-[(5-{[4-(3-pyrrolidin-1-ylpropyl)piperazin-1-yl]carbonyl}-1,2,4-oxadiazol-3-yl)methyl]benzenesulfonamide trifluoroacetamide]
17 | 100 to 1000 nM | COc1cc(C)c(S(=O)(=O)N(C)Cc2cc(C(=O)N(C)Cc3ccc(-c4cncnc4)cc3)co2)c(C)c1 [Ex 38, 5-({[(4-methoxy-2,6-dimethylphenyl)sulfonyl](methyl)amino}methyl)-N-methyl-N-(4-pyrimidin-5-ylbenzyl)furan-3-carboxamide]
18 | 10 to 100 nM | COc1cc(C)c(S(=O)(=O)N(Cc2nc(C(=O)N3CC4CCN(Cc5ccc(OC)nc5)CC4C3)co2)C2CC2)c(C)c1 (centres unmarked) [Ex 210, N-Cyclopropyl-4-methoxy-N-{[4-({5-[(6-methoxypyridin-3-yl)methyl]octahydro-2H-pyrrolo[3,4-c]pyridin-2-yl}carbonyl)-1,3-oxazol-2-yl]methyl}-2,6-dimethylbenzenesulfonamide trifluoroacetate]
19 | 10 to 100 nM | COc1cc(C)c(S(=O)(=O)N(Cc2nc(C(=O)N3CCC(O)(CN4CCOCC4)CC3)co2)C2CC2)c(C)c1 [Ex 224, N-Cyclopropyl-N-[(4-{[4-hydroxy-4-(morpholin-4-ylmethyl)piperidin-1-yl]carbonyl}-1,3-oxazol-2-yl)methyl]-4-methoxy-2,6-dimethylbenzenesulfonamide trifluoroacetate]
20 | 100 to 1000 nM | COc1cc(C)c(S(=O)(=O)N(C)Cc2cc(C(=O)N(C)Cc3ccc(CN4CCCC(OC)C4)cc3)co2)c(C)c1 (centres unmarked) [Ex 130, 5-({[(4-Methoxy-2,6-dimethylphenyl)sulfonyl](methyl)amino}methyl)-N-{4-[(3-methoxypiperidin-1-yl)methyl]benzyl}-N-methylfuran-3-carboxamide]
